Measurements from US10772903B2, “Targeting fungi in combination with cancer therapy” (Cedars-Sinai Medical Center, priority 2016, dated 2020).

Legend:
[1] = system: E0771 mammary tumors; test: Orthotopic E0771 mammary tumors, tumor growth after localized irradiation with or without antibiotics/antifungals; format: in vivo, mice; details: for tumor response to RT: agent for one week prior to localized kV irradiation (16 Gy), FIG. 26, 27A
Experimental: Orthotopic E0771 mammary tumors were grown to a median diameter of 1.0 cm and mice were then started with either antibiotics (Abx) or antifungals (AF) for one week prior to being treated with localized kV irradiation (16 Gy). Total tumor burden/animal assessed every 3 days until endpoint. […] Antibiotics (Abx) were ampicillin, imipenem, cilastin and vancomycin. Fluconazole was the antifungals (AF) used for these experiments. Significance was determined by two-way ANOVA. Kaplan-Meier survival curves are also shown with significance determined by the Log-Rank test (FIG. 26G, FIG. 26H). One of five experiments is shown. […] For all figures significance is shown as *p<0.05, **p<0.01, ***p<0.001.
Orthotopic E0771 mammary tumors were grown as described above and then treated with either the antifungal (5-fluorocytosine) one week prior to treatment with localized kV irradiation (16 Gy) (n=8 per group, one of two repeats shown) (FIG. 27A).
For experiments assessing antifungal treatment and the efficacy of radiation therapy (FIGS. 2 and 13), mice bearing syngeneic murine tumors (derived from the E0771 cell line) were treated for one week with fluconazole by putting fluconazole in their drinking water. When tumors reached approximately 1 cm in size they were irradiated with 16 Gray of focal radiation from a Cesium-137 source. The tumors were then followed for tumor growth until they reached approximately 2 cm in size at which time they were harvested for analysis.
For experiments assessing the anti-fungal combination treatment (FIG. 14), in addition to just fluconazole the mice were treated with a cocktail of antifungals (Fluconazole, 5-Fluorocytosine and Amphotericin B) for one week prior to RT.

[2] = system: CD4+ T cells; test: Cytokine expression of CD4+ T cells from tumors; format: in vivo, mice; details: FIG. 4
Source text: Tumors were harvested from mice at various time points and analyzed by flow cytometry (FACS) (FIG. 22A), immunohistochemistry (IHC) (FIG. 22B) and qPCR (FIG. 22C). FIG. 22A) For FACS, tumors were enzymatically dissociated with and labeled with fluorescently tagged antibodies and then placed on a flow cytometer. FIG. 22B) For IHC, tumor fragments were fixed in formalin and embedded in paraffin. 5 micron sections were then cut and stained with various antibodies and developed with DAB prior to whole-slide scanning on the Aperio system (Leica Biosystems). FIG. 22C) qPCR was performed on flow sorted immune cells (e.g. CD4+ T cells or macrophages) and then subjected to qPCR with a panel of primers.
Tumors are harvested and evaluated at three endpoints: 1, 2, 4 and 10 days following RT. […]

[3] = system: tumors; test: Tumor immunohistochemistry: proliferation, cell death, vessels; format: in vivo, mice; details: FIG. 5
Experimental: Orthotopic E0771 mammary tumors were grown to a median diameter of 1.0 cm and mice were then started with either antibiotics (Abx) or antifungals (AF) for one week prior to being treated with localized kV irradiation (16 Gy). Total tumor burden/animal assessed every 3 days until endpoint. […] Antibiotics (Abx) were ampicillin, imipenem, cilastin and vancomycin. Fluconazole was the antifungals (AF) used for these experiments. Significance was determined by two-way ANOVA. Kaplan-Meier survival curves are also shown with significance determined by the Log-Rank test (FIG. 26G, FIG. 26H). One of five experiments is shown. Tumors from mice were harvested at one week following RT and stained for bromodeoxyuridine (BrdU) and cleaved caspase 3 (CC3) to assess for proliferation and cell death respectively (FIG. 26I, FIG. 26J). Slides were scanned using the Aperio slide scanner and analyzed using the ScanScope nuclear algorithm included in the Aperio software package. Significance was determined by two-way ANOVA. For all figures significance is shown as *p<0.05, **p<0.01, ***p<0.001.

[4] = system: intratumoral leukocytes; details: FIG. 3; with RT; fluconazole added to RT and antibiotics
Experimental: Irradiated E0771 mammary tumors were harvested from mice at one week following RT. Tumors were dissociated using the tumor dissociation kit (Miltenyi Biotech) and CD45+ cells were then isolated with CD45+ MacsBeads. The resulting CD45+ cells were then stained with fluorescent antibodies and run on a flow cytometer. Total leukocytes (CD45+ Cells), CD4+ T cells, CD8+ T cells, M1 macrophages (CD11b+Ly6C+) and M1 macrophages (CD11b+F4/80′) were assessed following antibiotic (FIG. 28A-FIG. 28D) and antifungal (FIG. 28E-FIG. 28H) treatment. Antibiotics (Abx) were ampicillin, imipenem, cilastin and vancomycin. Fluconazole was the antifungal (AF) used for these experiments. n=5-7 per group and represent one of five independent experiments.

| Structure (SMILES) | tumor response to RT [1] | efficacy of RT ([1]; FIG. 12A, RT 16 Gy) | IFN-γ expression by CD4+ T cells [2] | IL-4 expression by CD4+ T cells [2] | tumor apoptosis [3] | tumor cell division [3] | CD4+ T cells [4] | CD8+ T cells [4] |
| --- | --- | --- | --- | --- | --- | --- | --- | --- |
| Nc1nc(=O)[nH]cc1F [5-fluorocytosine] | similarly enhance the efficacy of RT | – | – | – | – | – | – | – |
| OC(Cn1cncn1)(Cn1cncn1)c1ccc(F)cc1F [Fluconazole] | enhance | increases the efficacy of RT | more | less | opposite | opposite | reduces the increase in CD4+ T cell | prevents the reduction of CD8+ T cells |
